Measurements published in paper PMC7796460, “Relation of Metal-Binding Property and Selective Toxicity of 8-Hydroxyquinoline Derived Mannich Bases Targeting Multidrug Resistant Cancer Cells” (Cancers, 2021).

Legend:
A431 cells = assay: MTT viability assay, A431; assay type: cell-based; details: Homo sapiens, A-431, 72 h, MTT 72 h
From the text: (§1) MDCK II canine kidney cells, A431 epidermoid carcinoma cells, the human uterine sarcoma cell lines MES-SA and the doxorubicin selected MES-SA-Dx5 were obtained from ATCC (MDCK II: No. CRL-2936™, A431: No. CRL-1555™, MES-SA: No. CRL-1976™, MES-SA/Dx5: No. CRL-1977™). ABCB1 was expressed in A431 and MES-SA cells using lentiviral transduction. The human cervix carcinoma cell line KB-3-1 and the vinblastine selected KB-v1were kind gifts from Dr. Michael M. Gottesman, National Institutes of Health. The phenotype of the resistant cells was verified using cytotoxicity assays. MDCK-B1 and MDCK-MM were established by the Sleeping Beauty transposon-based gene delivery system. OVCAR-8 and NCI-ADRres cells (obtained from the Division of Cancer Treatment and Diagnosis (DCTD) Tumor Repository (National Cancer Institute, Frederick, MD, USA)) were cultivated in RPMI-1640 (Sigma Aldrich, Budapest, Hungary), and other cell lines were cultivated in Dulbecco’s Modified Eagle Medium (DMEM, Sigma Aldrich, Budapest, Hungary), supplemented with 10% fetal bovine serum, 5 mM glutamine, and 50 unit/mL penicillin and streptomycin (Life Technologies, Carlsbad, CA, USA). All cell lines were cultivated at 37 °C, 5% CO2.
(§2) MTT viability assays were performed as described earlier with minor modifications. Briefly, cells were seeded into 96-well tissue culture plates (Sarstedt, Newton, NC, USA/Orange, Braine-l’Alleud, Belgium) at a density of 5000 cells/well and allowed to attach overnight. Test compounds were added to achieve the required final concentration in a final volume of 100 µL per well. After an incubation period of 72 h, the supernatant was removed and fresh medium containing the MTT reagent (0.083 mg/mL) was added. Incubation with MTT at 37 °C was terminated after 1 h by removing the supernatant and lysing the cells with 100 µL DMSO per well. Viability of the cells was measured spectrophotometrically based on the absorbance values at 540 nm using either a Perkin Elmer Victor X3 or an EnSpire microplate reader. Data were background corrected by subtraction of the signal obtained from unstained cell lysates and normalized to untreated cells. Curves were fitted by Prism software (GraphPad Software Inc., San Diego, CA, USA) using the sigmoidal dose-response model (comparing variable and fixed slopes). […] Significance was calculated using unpaired t-tests; results are given as *: p ≤ 0.05, **: p ≤ 0.01, ***: p ≤ 0.001, ****: p ≤ 0.0001.

MDCK-MM cells = assay: MTT viability assay, MDCK-MM (non-functional Pgp); assay type: cell-based, canine; details: for IC50: Canis lupus familiaris, 72 h, MTT 72 h; for SR MDCK-MM: IC50 MDCK vs. MDCK-MM
From the text: as §1, §2

MES-SA cells = assay: ROS determination with DCFDA, MES-SA; assay type: cell-based, human; details: 2 h
Experimental: Measurements were performed as described earlier. Briefly, cells were harvested, washed with PBS, and incubated with 10 µM DCFDA in a water bath shaker at 37 °C for 30 min in a density of 3 × 10^6 cells/mL. After washing with PBS, cells were seeded to 96-well plates in PBS in a density of 2 × 10^4 cells/well. Following the measurement of the basal fluorescence, test compounds were added in different concentrations and the fluorescence of the samples was followed at time intervals of 10 min. DCFDA solution in buffer was used as a cell free control to test for interaction of the test compounds with DCFDA. Data were analyzed as fold change of fluorescence compared to basal levels and untreated cells. Significance was calculated using unpaired t-tests; results are given as *: p ≤ 0.05, **: p ≤ 0.01, ***: p ≤ 0.001, ****: p ≤ 0.0001.
Table S3: Characterization of intracellular ROS production with the DCFDA assay for P -gp negative MES-SA and P-gp positive MES-SA/Dx5 cells. Fold changes in fluorescence are shown after a 2 h with the investigated 8 -hydroxyquinoline ligands. Data S-refer to Figure 7 and allow […]
concentration range from 6.25µ M to 50µ M. Fold change of fluorescence obtained in the presence of 5 mM NAC is given in brackets.

KB-3-1 cells = assay: MTT viability assay, KB-3-1; assay type: cell-based; details: Homo sapiens, KB 3-1, 72 h, MTT 72 h
From the text: as §1, §2

NCI-ADRres cells = assay: MTT viability assay, NCI-ADRres; assay type: cell-based; details: for IC50: Homo sapiens, NCI/ADR-RES, 72 h, MTT 72 h; for SR NCI-ADRres: IC50 OVCAR-8 vs. NCI-ADRres
From the text: as §1, §2

[1] = Reduction of in situ formed copper(II) complexes by GSH, followed spectrophotometrically; assay type: physicochemical; details: 1:1 metal to ligand, 5 eq GSH (Figure 5B)
From the text: Disruption of cellular redox homeostasis can be responsible for the toxicity of an anticancer agent. […] In addition to their redox potentials, redox cycling of the complexed metal ions is also influenced by the kinetics of the reduction and re-oxidation reactions. Reduction of iron(III) and copper(II) complexes by the physiologically relevant reducing agents glutathione (GSH) and ascorbate was followed spectrophotometrically. Although GSH is a stronger reducing agent than ascorbate, ascorbate reacted considerably faster with the iron(III) complexes (Figure 5A), while reduction by GSH seemed to be kinetically hindered (not shown). […]
Figure 5 Reduction of the in situ formed iron(III) and copper(II) complexes from equimolar metal-to-ligand ratios with antioxidants was followed spectrophotometrically by the decrease in the respective absorbance maxima. (A) Time-dependent decrease of the absorbance values in equimolar 1:1 metal to ligand mixtures of FeCl3 with Q-1 at 356 nm (black), Q-2 at 348 nm (blue), Q-3 at 334 nm (green) and Q-4 at 328 nm upon addition of 2.5 equivalents of ascorbate. (B) Time-dependent decrease of the absorbance values in equimolar 1:1 metal to ligand mixtures of CuCl2 with Q-1 at 370 nm (black), Q-2 at 372 nm (blue), Q-3 at 368 nm (green) and Q-4 at 430 nm upon addition of 5 eq GSH. […]

[2] = set-up: method as in PMID 30460942; details: copper(II) complex of the ligand; cited from earlier work
[3] = presence of 1 µM Tariquidar (values in brackets)
[4] = presence of 1 µM Tariquidar (brackets)
[5] = 6.25 µM, presence of 5 mM NAC (brackets)
[6] = 12.5 µM, presence of 5 mM NAC (brackets)
[7] = 25 µM, presence of 5 mM NAC (brackets)
[8] = 50 µM, presence of 5 mM NAC (brackets)

IC50 (A431 cells; absence of Tariquidar) [µM]	IC50 (A431 cells; [3]) [µM]	IC50 (KB-3-1 cells; absence of Tariquidar) [µM]	IC50 (KB-3-1 cells; [3]) [µM]	Structure (SMILES)	IC50 (MDCK-MM cells; absence of Tariquidar) [µM]	IC50 (MDCK-MM cells; [3]) [µM]	SR MDCK-MM (MDCK-MM cells; absence of Tariquidar)	SR MDCK-MM (MDCK-MM cells; [4])	Fold change in fluorescence (DCFDA) (MES-SA cells; 6.25 µM)	Fold change in fluorescence (DCFDA) (MES-SA cells; [5])	Fold change in fluorescence (DCFDA) (MES-SA cells; 12.5 µM)	Fold change in fluorescence (DCFDA) (MES-SA cells; [6])	Fold change in fluorescence (DCFDA) (MES-SA cells; 25 µM)	Fold change in fluorescence (DCFDA) (MES-SA cells; [7])	Fold change in fluorescence (DCFDA) (MES-SA cells; 50 µM)	Fold change in fluorescence (DCFDA) (MES-SA cells; [8])	IC50 (NCI-ADRres cells; absence of Tariquidar) [µM]	IC50 (NCI-ADRres cells; [3]) [µM]	SR NCI-ADRres (NCI-ADRres cells; absence of Tariquidar)	SR NCI-ADRres (NCI-ADRres cells; [4])	further results
3.31 ± 1.61	3.18	9.55 ± 2.55	11.7	Oc1c(CN2CCOCC2)ccc2cccnc12 [Compound Q-2, 7-(morpho-lino-methyl)quinolin-8-ol]	9.74 ± 4.04	9.01	0.82	1.23	1.598± 0.32	1.096± 0.16	1.792± 0.53	0.930± 0.16	2.101± 0.86	0.988± 0.15	2.454± 1.39	0.946± 0.14	2.84 ± 0.81	5.41	1.11	0.61	Time until half of the initial copper(II) complex is reduced by GSH [1]: within the first minute
3.91 ± 0.83	4.09	6.19 ± 0.12	6.69	Oc1c(CN2CCCCC2)ccc2cccnc12 [Compound Q-3, 7-(piperidin-1-ylmethyl)quinolin-8-ol]	6.67 ± 2	8.45	1.14	1.20	1.288± 0.24	1.097± 0.11	1.372± 0.22	1.080± 0.27	1.464± 0.39	1.119± 0.24	1.753± 0.37	1.054± 0.25	0.68 ± 0.09	4.22	4.60	0.88	
5.82 ± 1.15	4.54	1.75 ± 0.62	2.65	Oc1c(CNCc2ccccc2F)cc(Cl)c2cccnc12 [Compound Q-4, 5-chloro-7-((2-fluorobenzylamino)methyl)quinolin-8-ol]	5.23 ± 2.11	6.27	0.87	0.94	1.207± 0.20	1.030± 0.16	1.190± 0.14	1.033± 0.21	1.187± 0.29	0.985± 0.12	1.151± 0.19	1.040± 0.17	0.14 ± 0.07	1.15	7.84		Time until half of the initial copper(II) complex is reduced by GSH [1]: not yet fully reached after two hours; pKa CuLH (logβCuLH − logβCuL) [2]: 5.91

Structure (SMILES)	IC50 (A431 cells; absence of Tariquidar) [µM]	IC50 (A431 cells; [3]) [µM]	IC50 (KB-3-1 cells; absence of Tariquidar) [µM]	IC50 (KB-3-1 cells; [3]) [µM]	IC50 (MDCK-MM cells; absence of Tariquidar) [µM]	IC50 (MDCK-MM cells; [3]) [µM]	SR MDCK-MM (MDCK-MM cells; absence of Tariquidar)	SR MDCK-MM (MDCK-MM cells; [4])	Fold change in fluorescence (DCFDA) (MES-SA cells; 6.25 µM)	Fold change in fluorescence (DCFDA) (MES-SA cells; [5])	Fold change in fluorescence (DCFDA) (MES-SA cells; 12.5 µM)	Fold change in fluorescence (DCFDA) (MES-SA cells; [6])	Fold change in fluorescence (DCFDA) (MES-SA cells; 25 µM)	Fold change in fluorescence (DCFDA) (MES-SA cells; [7])	Fold change in fluorescence (DCFDA) (MES-SA cells; 50 µM)	Fold change in fluorescence (DCFDA) (MES-SA cells; [8])	IC50 (NCI-ADRres cells; absence of Tariquidar) [µM]	IC50 (NCI-ADRres cells; [3]) [µM]	SR NCI-ADRres (NCI-ADRres cells; absence of Tariquidar)	SR NCI-ADRres (NCI-ADRres cells; [4])	further results
Oc1cccc2cccnc12 [Compound Q-1, 8-Hydroxyquinoline]	2.35 ± 0.92	2.9	8.59 ± 2.92	10.9	3.34 ± 0.6	3.59	0.97	0.86	0.965± 0.12	1.261± 0.26	0.799± 0.12	1.148± 0.32	0.722± 0.22	1.193± 0.44	0.748± 0.21	0.912± 0.38	1.84 ± 0.3	2.65	1.88	1.29	
